Experimental data published in ChEMBL document CHEMBL1158152, “(D)-2-tert-Butoxycarbonylamino-5,5-difluoro-5-phenyl-pentanoic acid: synthesis and incorporation into the growth hormone secretagogues” (Bioorg Med Chem Lett, 2008).

How the values were obtained:
[1] = Tmax in rat at 15 umole/kg, po; format: ADME, organism-based; details: in vivo
[2] = Cmax in rat at 15 umole/kg, po; format: ADME, organism-based; design: route oral; details: in vivo
[3] = Oral bioavailability in rat at 15 umole/kg; format: ADME, organism-based; details: in vivo
[4] = Half life in rat at 5 umole/kg, iv; format: ADME, organism-based; details: in vivo
[5] = tested on: Rattus norvegicus; assay: Increase in GH level in acute anesthetized rat at 1.74 umol/kg, iv after 15min relative to control; format: functional
[6] = AUC in rat at 15 umole/kg, po; format: ADME, organism-based; details: plasma
[7] = Volume of distribution at steady state in rat at 5 umole/kg, iv; format: ADME, organism-based; details: in vivo, read-out: Vdss
[8] = Clearance in rat at 5 umole/kg, iv; format: ADME, organism-based; details: in vivo
[9] = Mean residence time in rat at 5 umole/kg, iv; format: ADME, organism-based; details: in vivo
[10] = AUC in rat at 5 umole/kg, iv; format: ADME, organism-based; details: plasma
[11] = Volume of distribution at steady state in rat at 10 umole/kg, iv; format: ADME, organism-based; details: in vivo, read-out: Vdss
[12] = AUC in rat at 10 umole/kg, po; format: ADME, organism-based; details: plasma
[13] = Clearance in rat at 10 umole/kg, iv; format: ADME, organism-based; details: in vivo
[14] = Half life in rat at 10 umole/kg, iv; format: ADME, organism-based; details: in vivo, read-out: AUC (converted)
[15] = Tmax in rat at 10 umole/kg, po; format: ADME, organism-based; details: in vivo
[16] = AUC in rat at 10 umole/kg, iv; format: ADME, organism-based; details: plasma
[17] = Oral bioavailability in rat at 10 umole/kg; format: ADME, organism-based; details: in vivo
[18] = target: Growth hormone secretagogue receptor type 1 (Homo sapiens, UniProt Q92847); assay: Agonist activity at GHS receptor; format: functional
[19] = Mean residence time in rat at 10 umole/kg, iv; format: ADME, organism-based; details: in vivo
[20] = Cmax in rat at 10 umole/kg, po; format: ADME, organism-based; design: route oral; details: in vivo

Growth hormone secretagogue receptor type 1, sequence (Q92847 whole entry): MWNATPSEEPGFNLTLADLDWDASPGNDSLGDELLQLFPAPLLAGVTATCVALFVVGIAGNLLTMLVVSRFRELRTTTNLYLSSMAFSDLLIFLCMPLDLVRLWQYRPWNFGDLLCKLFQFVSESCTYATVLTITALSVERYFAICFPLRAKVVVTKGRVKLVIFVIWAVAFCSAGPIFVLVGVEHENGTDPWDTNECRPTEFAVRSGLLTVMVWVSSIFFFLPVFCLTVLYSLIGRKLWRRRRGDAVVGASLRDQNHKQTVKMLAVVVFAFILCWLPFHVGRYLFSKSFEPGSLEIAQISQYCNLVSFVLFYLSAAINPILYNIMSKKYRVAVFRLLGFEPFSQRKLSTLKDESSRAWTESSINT

CC(C)(N)C(=O)N[C@H](COCc1ccccc1)c1nnnn1CCOC(=O)NCCCCO
Tmax [1]: 0.7 h
Cmax [2]: 68 nM
bioavailability [3]: 9.2%
half-life [4]: 0.7 h
Activity [5]: 750%
AUC [6]: 0.11 µM·h
Vd [7]: 6.4 L/kg
clearance [8]: 213 mL/min/kg
MRT [9]: 0.5 h
AUC [10]: 0.401 µM·h

CC(C)(N)C(=O)N[C@H](CCC(F)(F)c1ccccc1)c1nnnn1CCOC(=O)NCCCCO
Vd [11]: 16 L/kg
AUC [12]: 0.239 µM·h
clearance [13]: 183 mL/min/kg
half-life [14]: 2.4 h
Activity [5]: 1934%
Tmax [15]: 1.6 h
AUC [16]: 0.901 µM·h
bioavailability [17]: 26%
EC50 [18]: 0.27 nM
MRT [19]: 1.4 h
Cmax [20]: 166 nM

CC(C)(N)C(=O)N[C@H](CCC(F)(F)c1ccccc1)c1nnnn1CCC#N
EC50 [18]: 0.9 nM
